Data reported in publication PMC12056667 (Chemical Science, 2025).

Molecular target: Tet(X4) (Escherichia coli, UniProt A0A3T0V9Y5)
Experiment: Absorbance activity assay (tigecycline turnover, A400)
Type: biochemical
Excerpt: We then tested the binding of reported type 1 TDase inhibitors to Tet(X4) (Fig. 3f, ESI Fig. S17 ^†).[33,38,39] […] These compounds gave similar apparent IC50^app values, in accord with trends in IC50 measurements performed by Markley et al.[33] […] We also developed a complementary endpoint activity assay where the turnover of tigecycline by Tet(X4) in a 96-well plate was quenched by addition of 1%v/v formic acid and analysed chromatographically. The peak integrals of tigecycline and its hydroxylated degradation product at 254 nm following UPLC analysis were measured to determine turnover (Fig. 5a). As this method separates components by chromatography, it enables IC50 measurements independent of potential interference from UV-active inhibitors (Fig. 5b). […] The apparent synergy of AZT with tetracyclines against whole cells expressing Tet(X4)[40] is therefore interesting and may derive from the proposed ability of AZT to interfere with DNA synthesis in bacteria,[40,53] or other unidentified mechanisms. […] Note, however, that plumbagin and 2-MNQ are naphthoquinones, which are well-characterised redox-active pan-assay interference (PAINS) moieties.[54]
233 Absorbance Activity Assays
234 A solution containing 100 mM TAPS (pH 8.5), 2 µM FAD, 10 mM MgCl2 and 100 nM Tet(X4) was
235 dispensed into a 384 well µClear plate (Greiner Bio-One), 25 µL per well, using a microplate reagent
236 dispenser. A 3-fold, 10-point dilution series of the substrates and inhibitors was made in DMSO with
237 the highest concentration of 50 mM, unless otherwise stated, and transferred to the enzyme solution in
238 technical quadruplicate using a CyBi-Well (CyBio) liquid-handling robot (1 µL per well). On each plate,
239 a column of no enzyme negative controls and no inhibitor (DMSO only) positive controls were
240 included. The plate was briefly centrifuged (1000 rpm), then incubated (ambient temperature,15 min).
241 A solution containing 100 mM TAPS (pH 8.5), 50 µM tigecycline and 500 µM NADPH was then
242 dispensed, with 25 µL per well. The plate was briefly centrifuged (1000 rpm), then transferred to a
243 CLARIOstar Plus Microplate reader. The absorbance was monitored at wavelength […] over the
244 course of 2 hours (23 flashes / cycle, 180 s cycle time, 41 data points, 25 ° C). The initial rate was
245 calculated by measuring the rate of change of A400 during the initial linear regime. Initial rates were
246 normalised between positive and negative controls. The normalised % response was plotted as a
247 function of log10([Inhibitor]) in molar units, and the IC50 was determined as above. […]

SMILES: Cc1c2c(c(O)c3c(O)cccc13)C(=O)[C@]1(O)C(=O)C(C(N)=O)=C(O)[C@@H](N(C)C)[C@@H]1C2 [Anhydrotetracycline]
- IC50: 7.6 ± 2 µM
